Laboratory results: patent US7078585B1, “Bacterial cell component-unresponsive model mouse” (Japan Science and Technology Agency, priority 1999, dated 2006)
Entries after “also recorded” stand apart in the source; their conditions may differ. Like-named read-outs stand apart in the source and are kept apart here.

Experiments:
thymocytes = assay: Thymocyte (T cell) proliferation with IL-1 costimulation ([3H]thymidine); format: cell-based, mouse; details: 100 U/ml with PHA, ConA or IL-2, 72 hours
Source text: Proliferation of T cells were examined by measuring [^3H] amount of [^3H] thymidine taken into the cells.

mice = assay: IL-1-induced acute phase protein mRNA in liver and serum TNF-α/IL-6 after intravenous injection; format: in vivo, mouse; details: 1 μg intravenously, 2 hours
Description: MyD88 knockout mice of the present invention were intravenously injected with 1 μg of […] (Genzyme), and 2 hours later liver and sera were taken. Total RNA was extracted from the liver using Trizol reagent (GIBCO). This RNA (10 μg) was electrophoresed and transferred to a nylon membrane, then Northern blot analysis was conducted with ^32P-labelled cDNA for acute phase proteins such as serum amyloid A (SAA-I), serum amyloid P(SAP), and haptoglobin (HP).
Because IL-1 induces production of […], increase of TNF-α and IL-6 concentrations in serum taken from MyD88 knockout mice of the present invention and wild-type littermates by the above-stated method were measured by ELISA.

splenic T cells = assay: IFN-γ production by splenic cells / splenic T cells (ELISA); format: cell-based, mouse; details: 20 ng/ml, 24 hours
Description: Further, splenic B cells of MyD88 knockout mice of the present invention and their wild-type littermates were stimulated by 20 ng/ml of IL-18 and cultured for 24 hours in vitro, then production of IFN-γ in culture supernatants was measured by ELISA.
Splenic T cells of MyD88 knockout mice of the present invention and their wild-type littermates, which were purified to 95% or over, were cultured on anti-CD3 antibody (20 μg/ml)(PharMingen)-coated plates in the presence of 2 ng/ml IL-12. 4 days after the onset of culture, cells were harvested and washed with Hanks' balanced salt solution. The washed cells (2×10^5) were stimulated and cultured again on anti-CD3 antibody (20 μg/ml)-coated 96-well plates for 24 hours with 20 ng/ml of IL-18 or 2 ng/ml of IL-12. Concentration of IFNγ in culture supernatants was determined by ELISA and compared.
MyD88 knockout mice of the present invention and their wild-type littermates were intraperitoneally injected with 500 μg of heat-killed Propionibacterium acnes (P. acnes). […] Concentration of IFN-γ in culture supernatants was determined by ELISA. […] 14 days after injection, T cells were purified from spleen, then cultured and stimulated for 24 hours, as described above, subsequently concentration of IFN-γ was measured.

JNK = JNK activation (in vitro kinase assay); format: cell-based, mouse
Description: In addition to induction of NF-κB activation, IL-1 is also known to activate c-Jun N-terminal kinase (JNK). To test whether IL-18 induces JNK activation, an in vitro kinase assay was carried out using GST-c-Jun-fusion protein as a […]. […] IL-18-induced NF-κB and JNK activation was impaired in MyD88-deficient mice.
(§1) In order to examine whether a lipoprotein/lipopeptide activates intracellular signaling molecules with the results of example 16, peritoneal macrophages of the 4 kinds of mouse (1×10^6) were stimulated with 0.3 ng/ml of R-MALP-2 for 10 minutes, and in vitro kinase assay (Auto in FIG. 25A), Western blot analysis (WB in FIG. 25A), electrophoretic mobility shift assay (FIG. 25B) were conducted with anti-IRAK antibody as in example 12. In addition, in vitro kinase assay (Auto in FIG. 25C) and Western blot analysis (WB in FIG. 25C) with anti-JNK1 antibody were also conducted.

AP-1 = assay: AP-1-dependent reporter activity after IL-18 treatment; format: cell-based; details: stimulation with IL-18
Description: Next, it was examined whether the dominant negative MyD88 mutant blocked IL-18-induced NF-κB activation as well. COS-7 cells were transiently transfected with MyD88 (amino acid 152–296) expression vector together with NF-κB-dependent luciferase reporter gene, and luciferase activity after IL-18 treatment was measured. Coexpression of MyD88 blocked IL-18-induced activation almost completely (see FIG. 7).
Because IL-18 activates AP-1-dependent gene information, whether MyD88 (amino acid 152–296) also acted as a dominant negative mutant of IL-18-induced AP-1 activation was investigated. Stimulation with IL-18-induced an approximately 3- to 4-fold increase in AP-1 activity, and this activation was blocked by coexpression of MyD88 (amino acid 152–296) (see FIG. 7).

NF-κB = NF-κB DNA binding activity (electrophoretic / gel mobility shift assay); format: cell-based, mouse
Description: Splenic T cells cultured in the presence of IL-12 and anti-CD3 antibody for 4 days were starved for 3 hours and then stimulated with IL-18. Nuclei extracted from the stimulated cells were analyzed by a gel mobility shift assay using a specific probe containing NF-κB binding site.
NF-κB activation in response to LPS or PGN was also investigated. Macrophages of various kinds of mouse were stimulated with said LPS or PGN, then nuclear extracts from the macrophages were purified and incubated with a probe specific to DNA binding site of NF-κB, and visualized by electrophoretic mobility shift assay as described previously (Immunity 9, 143–150, 1998). The results are shown in FIGS. 21C and D. Arrows in FIGS. 21C and D indicate the position of a complex comprised of NF-κB and the specific probe, and arrowheads indicate the position of specific probe only.
as §1

YAC-1 targeting cells = assay: NK lytic activity against 51Cr-labelled YAC-1 target cells; format: cell-based, mouse; details: 24 hours
Description: It has been well known that IL-18 enhances lytic activity of NK cells. Splenic […] from MyD88 knockout mice of the present invention and wild-type littermates were cultured in the presence or absence of 20 ng/ml of IL-18 (Hayashibara Biochemical Laboratories, Inc.) for 24 hours with ^51Cr-labelled mouse lymphoma cells (hereinafter “YAC-1”) targeting cells. 4 hours later, released ^51Cr in supernatants were counted by a gamma counter.

peritoneal macrophages [1] = assay: IL-6 (ELISA) and NO2^− (Greiss method) production by peritoneal macrophages; format: cell-based, mouse; details: for production of IL-6: 24 hours; for production of NO2^−: in the presence of IFN-γ (30 unit/ml)
Description: Each of TLR2 knockout (TLR2−/−), TLR4 knockout (TLR4−/−) and wild-type (wild-type) mice were intraperitoneally injected with 2 ml of 4% thioglycollate medium (DIFCO). Three days later, peritoneal exudate cells were isolated from the peritoneal cavity of each mouse. These cells were cultured in RPMI1640 medium (GIBCO) supplemented with 10% fetal bovine serum (GIBCO) for 2 hours at 37° C. and washed with ice-cold Hank's buffered salt solution (HBSS; GIBCO) to remove nonadherent cells. Adherent cells were used as peritoneal macrophages for following experiments.
Synthetic lipid A, which was soluble in endotoxin-free water and containing 0.025% of triethylamine, was used as said synthetic lipid A. After the culture, production amounts of IL-6 (FIG. 17A), TNF-α (FIG. 17B) and NO2^− (FIG. 17C) in culture supernatants were measured. Production amount of IL-6 was measured by enzyme-linked immunosorbent assay (ELISA; ENDOGEN), and that of TNF-α was measured by ELSIA, according to manufacturer (Genzyme)'s instructions, and that of NO2^31 was measured by the Greiss method using NO2/NO3 Assay Kit (Dojindo Laboratories).

peritoneal macrophages [2] = assay: TNF-α production by stimulated peritoneal macrophages (ELISA); format: cell-based, mouse
splenic B cells = assay: MHC class II (I-A^b) expression on splenic B cells (flow cytometry); format: cell-based, mouse; details: 48 hours
Description: The expression of major histocompatibility complex (MHC) class II (I-A^b molecule) on the surface of splenic B cells in response to Re-595LPS was examined by flow cytometry. Splenic B cells (1×10^6) from each of the wild-type, MyD88- and TLR4-deficient mice were cultured for 48 hours in the presence of various concentrations (0, 0.01, 0.1, 1, 10 or 100 μg/ml) of LPS. After the culture, the cells were collected and then stained by combining I-A^b molecule on the surface of the cells and FITC-labelled antibody which is constructed by combining phycoerythrin (PE; PharMingen)-conjugated anti-B220 antibody or biotinylated anti-mouse I-A^b antibody (PharMingen) and fluorescein […] (FITC; PharMingen)-conjugated streptavidin. The stained cells were analyzed on fluorescence-activated cell sorter Calibur (FACS Calibur) using CELLQuest software (Becton Dickinson).
Next, Splenic B cells (1×10^6) from each of the wild-type, MyD88- and TLR4-deficient mice were cultured for 48 hours in the presence or absence of 100 U/ml of IL-4, and then stimulated. Subsequently, the cells were stained by combining I-A^b molecule on the surface of the splenic B cells and PE-conjugated anti-B220 antibody or FITC-conjugated anti-mouse I-A^b antibody. The cell proliferation was measured on fluorescence-activated cell sorter Calibur using CELLQuest software (see FIG. 9B).
In addition, the expression of major histocompatibility complex (MHC) class II (I-A^b) on the surface of B cells in response to Re-595 LPS was examined by flow cytometry. Splenic B cells (1×10^5) of each of wild-type, TLR2 knockout (2−/−) and TLR4 knockout (4−/−) mice were isolated and cultured for 48 hours in 96-well plates with various concentrations (0, 10^1, 10^2, 10^3, 10^4 or 10^5 ng/ml) of LPS or 100 U/ml of IL-4. […] The stained cells were analyzed on fluorescence-activated cell sorter Calibur (FACS Calibur) using CELLQuest software (Becton Dickinson) (FIG. 18B).

peritoneal macrophages [3] = assay: I-A^b expression in peritoneal macrophages after intraperitoneal IFN-γ; format: in vivo, mouse; details: 5000 U intraperitoneally, three days after injection
Source text: Each of wild-type, MyD88- and TLR4-deficient mice were intraperitoneally injected with 5000 U of IFN-γ (Genzyme) or PBS. Three days after injection, peritoneal macrophages were collected and stained by combining I-A^b molecule on the surface of the macrophage membranes and FITC-conjugated anti-mouse I-A^b antibody, then analyzed by fluorescence-activated cell sorter Calibur using CELLQuest software (see FIG. 9C).

[4] = nuclear extracts of wild-type cells
[5] = peritoneal macrophages of TLR2 knockout mice
[6] = peritoneal macrophages of wild-type mice

Molecule: IL-1β: IL-1β (Genzyme), cytokine
- proliferation of thymocytes (thymocytes; MyD88 knockout mice): almost no enhanced proliferation
- proliferation of thymocytes (thymocytes; wild-type littermates): displayed enhanced proliferation
- IL-6 concentration in serum (mice; MyD88 knockout mice): neither TNF-α nor IL-6 concentration increased
- TNF-α concentration in serum (mice; MyD88 knockout mice): neither TNF-α nor IL-6 concentration increased
- increase of mRNA expression of acute phase proteins (SAA-I, SAP, HP) in liver (mice; MyD88 knockout mice): not observed in MyD88 knockout mice
- increase of mRNA expression of acute phase proteins (SAA-I, SAP, HP) in liver (mice; wild-type littermates): increase of induction was observed in wild-type mice
- IL-6 concentration in serum (mice; wild-type mice): TNF-α and IL-6 concentrations increased
- TNF-α concentration in serum (mice; wild-type mice): TNF-α and IL-6 concentrations increased

Molecule: IL-18: IL-18 (Hayashibara Biochemical Laboratories, Inc.), cytokine
- production of IFN-γ (splenic T cells; splenic cells / T cells of MyD88 knockout mice): production of IFN-γ was not observed; also recorded: cannot enhance IL-18-responsive production of IFNγ; also recorded: could not be enhanced
- production of IFN-γ (splenic T cells; splenic cells / T cells of wild-type mice): production of IFN-γ was induced; also recorded: high level of IFN-γ production in response to IL-18 was observed
- JNK activation (JNK; MyD88-deficient cells): IL-18-induced JNK activation was not observed
- JNK activation (JNK; Th1-developing cells of wild-type mice): induced JNK activation
- increase in AP-1 activity (AP-1): 3- to 4 fold
- NF-κB DNA binding activity / NF-κB activation (NF-κB; [4]): detected in the nuclear extracts from wild-type cells
- lytic activity to YAC-1 targeting cells (YAC-1 targeting cells; splenic cells of MyD88 knockout mice): not enhanced
- lytic activity to YAC-1 targeting cells (YAC-1 targeting cells; splenic cells of wild-type mice): dramatically enhanced

Molecule: TNF-α
- JNK activation (JNK; MyD88-deficient cells): normal activation of JNK was observed
- NF-κB DNA binding activity / NF-κB activation (NF-κB; nuclear extracts of MyD88-deficient cells): almost the same levels of NF-κB DNA binding activity
- NF-κB DNA binding activity / NF-κB activation (NF-κB; [4]): almost the same levels of NF-κB DNA binding activity

Molecule: lipid A
- production of IL-6 (peritoneal macrophages [1]; [5]): produced IL-6 and TNF-α
- production of NO2^− (peritoneal macrophages [1]; [5]): production of NO2^− was confirmed
- production of IL-6 (peritoneal macrophages [1]; peritoneal macrophages of TLR4 knockout mice): produced neither IL-6 nor TNF-α
- production of IL-6 (peritoneal macrophages [1]; [6]): produced IL-6 and TNF-α
- production of NO2^− (peritoneal macrophages [1]; [6]): production of NO2^− was confirmed
- production of TNF-α (peritoneal macrophages [2]): produced IL-6 and TNF-α
- production of TNF-α (peritoneal macrophages [2]; peritoneal macrophages of TLR4-deficient mice, 24 hours): produced neither IL-6 nor TNF-α

B1: IL-4: IL-4 (Genzyme), cytokine (protein, UniProt P05112 25-153, looked up)
Interleukin-4: HKCDITLQEIIKTLNSLTEQKTLCTELTVTDIFAASKNTTEKETFCRAATVLRQFYSHHEKDTRCLGATAQQFHRHKQLIRFLKRLDRNLWGLAGLNSCPVKEANQSTLENFLERLKTIMREKYSKCSS
- expression of I-A^b molecule (splenic B cells; splenic B cells of MyD88-deficient mice): showed same reaction as those of wild-type mice
- expression of I-A^b molecule (splenic B cells; splenic B cells of TLR2 knockout mice): normal expression of I-A^b molecule
- expression of I-A^b molecule (splenic B cells; splenic B cells of TLR4-deficient mice): showed same reaction as those of wild-type mice; also recorded: normal expression of I-A^b molecule

B2: IFN-γ: IFN-γ (Genzyme), cytokine (protein, UniProt P01579 24-161, looked up)
Interferon gamma: QDPYVKEAENLKKYFNAGHSDVADNGTLFLGILKNWKEESDRKIMQSQIVSFYFKLFKNFKDDQSIQKSVETIKEDMNVKFFNSNKKKRDDFEKLTNYSVTDLNVQRKAIHELIQVMAELSPAAKTGKRKRSQMLFRG
- expression of I-A^b molecule in peritoneal macrophages (peritoneal macrophages [3]): comparative among wild-type, MyD88- and TLR4-deficient mice
